The source of these data is PMC6384891, “An automated microliter-scale high-throughput screening system (MSHTS) for real-time monitoring of protein aggregation using quantum-dot nanoprobes” (Scientific Reports, 2019).

Molecules are shown by their SMILES. Read-outs that look alike come from different tables or passages of the source.

The target in one assay is T1, Aβ (Homo sapiens, UniProt P05067).
T1 construct: Human Aβ42 (4349-v, Peptide Institute); purchased Peptide Institute 4349-v
Kind of assay: ThT assay of Aβ aggregation. It counts as biochemical. How it is done: The ThT assay was conducted according to the method of Levine[10] modified in our laboratory.

In another assay the target is T2, Aβ42 (Homo sapiens, UniProt P05067).
T2 construct: Human Aβ42 (4349-v, Peptide Institute); purchased Peptide Institute 4349-v
Description: manual MSHTS system, Aβ aggregation inhibition. Format: biochemical. How it is done: The automated MSHTS system used was based on the method described in the Supplementary Methods. In this study, EC50 values of the plant crude extract library and the compound library were measured by the automated MSHTS system and the manual MSHTS system[19],[20], respectively. All fluorescence micrograph images were taken using a 4x objective in the MSHTS systems. […]
concentrations of RA were incubated with 30 µM A β and 30 nM QD 655-labeled Aβ or QD605-labeled Aβ in a 1536-well plate according to our previous reports1,5. Fluorescence micrographs […]
presence of 600 and 120 µM RA.
(1 picture or pasted object on this page, not shown here) […]
QDAβ were incubated with various concentrations of chaperones i n a 1536-well plate for 24 h at 37 ° C and observed by fluorescence microscopy. C, E, and P indicate CRT , ERp57, and PDI, respectively. EC50 and the SD values were determined from the micrographs of three independent

[1] abbreviates: tropolone derivatives, read-out: ThT [µM], EC50, Supplementary Table S4 (converted).
[2] abbreviates: compound library, Aβ aggregation, read-out: EC50 by MSHTS system (MA), Fig. 3.
[3] abbreviates: screening of compound library by MSHTS.
The mark [4] stands for this setting: 1st screening, read-out: EC50 [µM] by MSHTS system, Supplementary Table S2 (converted).
The mark [5] stands for this setting: Aβ aggregation, read-out: EC50 by ThT assay (TA), Fig. 3.
[6] abbreviates: 2nd screening, tropolone derivatives, read-out: EC50 [µM] by MSHTS system, Supplementary Table S3 (converted).

T2 sequence (P05067 672-713 limits assumed): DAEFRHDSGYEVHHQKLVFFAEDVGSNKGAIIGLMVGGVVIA
T1 sequence (P05067 672-713 limits assumed): as above

In general, EC50 refers to the concentration at which the effect is half-maximal. With `O=c1ccc(-c2cccc([N+](=O)[O-])c2)ccc1O` [MO-006], the concentration giving a half-maximal response (EC50) on Aβ (setting [1]) is 75 µM.

As to `COc1ccc(-c2cccc([N+](=O)[O-])c2)ccc1=O` [MO-007], the EC50 on Aβ42 (setting [2]) is 144 ± 62 µM. In addition, the “Aβ aggregation inhibitory activity (in words)” value on Aβ42 (setting [3]) is given as “active”.

Regarding `Nc1ccc(O)c(=O)cc1` [MO-009], the results for the EC50 on Aβ42 (setting [4]) and at Aβ (setting [1]) were 19.1 µM and 87.6 µM, respectively. Also, the “Aβ aggregation inhibitory activity (in words)” value at Aβ42 (setting [3]) is “active”.

Take `O=c1ccc(-c2ccc([N+](=O)[O-])cc2)ccc1O` [MO-010]: the figures for the 50% effective concentration (EC50) at Aβ42 (setting [4]) and on Aβ (setting [5]) were 52.5 µM and 144 ± 29 µM, respectively. In addition, the “Aβ aggregation inhibitory activity (in words)” value at Aβ42 (setting [3]) is on record as “active”.

`COc1ccc(-c2ccc([N+](=O)[O-])cc2)ccc1=O` [MO-011]: the concentration giving a half-maximal response (EC50) on Aβ42 (setting [2]) was 200 ± 66 µM. On Aβ42 (setting [3]), the “Aβ aggregation inhibitory activity (in words)” value is on record as “active”.

With `O=Nc1ccc(O)c(=O)cc1` [MO-020], the EC50 came to 154 ± 23 µM at Aβ42 (setting [2]) and 152 ± 15 µM at Aβ (setting [5]). In addition, the “Aβ aggregation inhibitory activity (in words)” value on Aβ42 (setting [3]) is recorded as “active”.

As for `Oc1cc2ccccc2cc1O` [MO-038], on Aβ42 (setting [4]), the EC50 is 31.4 µM. In addition, the “Aβ aggregation inhibitory activity (in words)” value at Aβ42 (setting [3]) is recorded as “active”.

For `O=c1cccccc1O` [MO-073], the EC50 on Aβ (setting [5]) is 1610 µM.

Turning to `CN(C)c1ccc(B(O)O)cc1` [MO-074], the EC50 on Aβ42 (setting [4]) was 53.1 µM. Also, the “Aβ aggregation inhibitory activity (in words)” value at Aβ42 (setting [3]) is on record as “active”.

On to `O=C1C=CC(=O)C=C1` [MO-100], for which, on Aβ42, the “Aβ aggregation inhibitory activity (in words)” value is “active” and the midpoint of the response, the EC50, lay at 56 µM.

Regarding `O=c1ccc(/N=N/c2ccc([N+](=O)[O-])cc2)ccc1O` [TR-001], on Aβ42 (setting [2]), the EC50 came to 258 µM.

Regarding `O=c1ccc(/N=N/c2cccc([N+](=O)[O-])c2)ccc1O` [TR-002], on Aβ42 (setting [6]), the half-maximal effective concentration (EC50) is 232 µM.

As to `O=c1ccc(/N=N/c2cc([N+](=O)[O-])cc([N+](=O)[O-])c2)ccc1O` [TR-003], the EC50 at Aβ42 (tropolone derivatives, read-out: MSHTS [µM], EC50, Supplementary Table S4) was 6.6 µM; at Aβ (setting [1]), 18.4 µM.

As for `O=c1ccc(/N=N/c2cc(C(F)(F)F)cc(C(F)(F)F)c2)ccc1O` [TR-004], at Aβ42 (setting [3]), the “Aβ aggregation inhibitory activity (in words)” value is “no activity”.

Regarding `N#Cc1ccc(/N=N/c2ccc(O)c(=O)cc2)cc1C(F)(F)F` [TR-007], the EC50 on Aβ42 (setting [6]) is 13.9 µM; at Aβ (setting [5]), 4.86 ± 0.9 µM.

For the compound `N#Cc1cccc(/N=N/c2ccc(O)c(=O)cc2)c1` [TR-027], the EC50 at Aβ42 (setting [6]) was 38.7 µM; on Aβ (setting [1]), 83 µM.
